Test results from ChEMBL document CHEMBL3616375, “Novel 11β-HSD1 inhibitors: C-1 versus C-2 substitution and effect of the introduction of an oxygen atom in the adamantane scaffold” (Bioorg Med Chem Lett, 2015).

Target: 11-beta-hydroxysteroid dehydrogenase 1 (Homo sapiens, UniProt P28845)
Experiment: Inhibition of 11beta-HSD1 in human mixed sex human liver microsomes assessed as reduction in conversion of [3H]-cortisone to [3H]-cortisol pre-incubated for 15 mins before [3H]-cortisone addition in presence of NADPH by scintillation proximity assay

Chain of 11-beta-hydroxysteroid dehydrogenase 1 (P28845 whole entry): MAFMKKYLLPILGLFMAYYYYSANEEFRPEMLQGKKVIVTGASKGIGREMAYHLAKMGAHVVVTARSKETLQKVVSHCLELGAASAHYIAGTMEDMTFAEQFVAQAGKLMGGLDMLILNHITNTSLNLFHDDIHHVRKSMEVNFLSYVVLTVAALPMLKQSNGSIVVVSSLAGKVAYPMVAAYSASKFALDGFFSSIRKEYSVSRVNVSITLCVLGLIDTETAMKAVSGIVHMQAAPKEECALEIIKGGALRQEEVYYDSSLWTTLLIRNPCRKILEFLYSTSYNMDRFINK

- IC50: 86 nM
Structure (SMILES): O=C(NC1C2CC3CC(C2)CC1C3)C1CCCCC1 (stereo unspecified)
